Experiments:
[1] = background statement; cited from earlier work
[2] = background statement; cited from earlier work; remark: listed apart in the source
MCF-7 cells = assay: WST-8 cell proliferation assay in MCF-7 cells; assay type: cell-based, human; details: MCF-7 cells, WST-8, 4 days
Protocol: (§1) Cell Culture. Human breast cancer cell lines MCF-7 (ATCC® HTB-22™) and T47D (ATCC® HTB-133™) were purchased from the American Type Culture Collection (ATCC), Manassas, Va., and maintained and cultured in Dulbecco's Modified Eagle's medium (DMEM) containing 10% fetal bovine serum, 1 unit/ml of penicillin and 1 μg/ml of streptomycin. Cells with 3-8 passages after purchase were used in experiments as indicated.
Cell Growth Assay. Cells were seeded at 1500/well in 96 well plates overnight. One day after seeding, they were treated with indicated doses of compounds. The growth of the cells was evaluated by colorimetric WST-8 assay 4 days after the compound treatment following the instructions of the manufacturer, Cayman Chemical, Ann Arbor, Mich.
Fulvestrant achieves an Imax value of 43.8%. […] RAD1901, a previously reported SERD molecule^18, achieves an Imax value of 25.7%.

ERα [3] = biological target: T1, ERα (Homo sapiens, UniProt P03372); assay: ER degradation by Western blotting in MCF-7 cells; assay type: cell-based; parameters: host or cells: MCF-7; details: 30 nM
T1 sequence (P03372 1-595): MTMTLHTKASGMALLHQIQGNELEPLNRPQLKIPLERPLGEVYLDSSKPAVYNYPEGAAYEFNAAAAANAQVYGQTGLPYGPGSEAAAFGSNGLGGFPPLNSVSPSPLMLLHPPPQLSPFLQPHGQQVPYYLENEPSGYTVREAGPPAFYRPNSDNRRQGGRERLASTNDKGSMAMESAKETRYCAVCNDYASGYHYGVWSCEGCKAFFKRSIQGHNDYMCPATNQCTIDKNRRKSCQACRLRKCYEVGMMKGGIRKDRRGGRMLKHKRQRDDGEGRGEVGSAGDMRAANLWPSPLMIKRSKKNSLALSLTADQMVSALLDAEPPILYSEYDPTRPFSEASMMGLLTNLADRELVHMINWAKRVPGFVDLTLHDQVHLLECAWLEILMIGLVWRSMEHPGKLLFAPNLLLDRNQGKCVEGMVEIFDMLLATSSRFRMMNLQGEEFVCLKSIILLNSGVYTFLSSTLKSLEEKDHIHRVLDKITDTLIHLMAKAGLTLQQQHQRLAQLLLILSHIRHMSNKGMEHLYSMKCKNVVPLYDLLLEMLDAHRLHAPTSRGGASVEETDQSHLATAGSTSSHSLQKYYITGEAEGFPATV
Protocol: FIG. 1 is an image showing the Western blotting analysis of ER protein in MCF-7 cells treated with Compounds of the Disclosure and control compounds. Cells were treated with different compounds for 4 h and whole cell lysates were then analyzed by Western blotting to examine the level of ER protein. GADPH protein was used for the loading control. The numbers below the panel represent the ERα/GADPH ratio normalized with the DMSO control at 100.
FIG. 2 is an image showing the Western blotting analysis of ER protein in the MCF-7 cells treated with indicated compounds at 1 nM, 10 nM and 100 nM. MCF-7 cells were treated with different compounds for 4 h and whole cell lysates were analyzed by Western blotting to examine the level of ER protein. GADPH protein was used for the loading control. The numbers below the panel represent the ERα/GADPH ratio normalized with the DMSO control at 100.
FIG. 7 is an image showing the ERα degradation dose-response Western blotting for compound 32 at 4 h in MCF-7 cells.
FIG. 9 is an image showing the time course of ERα degradation by Western blotting by compound 32 (30 nM) and fulvestrant (30 nM) in the MCF-7 cells.
as §1
(§2) Western Blot Analysis. Western blot analysis was performed essentially as described previously (Hu et al, 2015, PMID: 26358219). Cells treated with indicated compounds were lysed in Radioimmunoprecipitation Assay Protein Lysis and Extraction Buffer (25 mmol/L Tris.HCl, pH 7.6, 150 mmol/L NaCl, 1% Nonidet P-40, 1% sodium deoxycholate, and 0.1% sodium dodecyl sulfate) containing proteinase inhibitor cocktail (Roche Diagnostics, Mannheim, Germany). After determination of protein concentration by BCA assay (Fisher Scientific, Pittsburgh, Pa.), equal amounts of total protein were electrophoresed through 10% SDS-polyacrylamide gels. The separated protein bands were transferred onto PVDF membranes (GE Healthcare Life Sciences, Marlborough, Mass.) and blotted against different antibodies, as indicated. The human estrogen receptor a antibodies (AB16460) were purchased from Abeam, Inc., Cambridge, Mass. The membranes were reblotted with horseradish peroxidase-conjugated anti-glyceraldehyde-3-phosphate dehydrogenase antibody (G9295) from Sigma-Aldrich Corporation, St. Louis, Mo. The blots were scanned and the band intensities were quantified using GelQuant.NET software as described in biochemlabsolutions.com. The relative mean intensity of target proteins was expressed after normalization to the intensity of glyceraldehyde-3-phosphate dehydrogenase bands from individual repeats.

ERα [4] = biological target: T1, ERα; assay: Mechanism of ER degradation: pretreatment with VHL ligand, ER ligand or proteasome inhibitor, Western blotting in MCF-7 cells; assay type: cell-based; parameters: host or cells: MCF-7; details: 1 μM, alone
Protocol: (§3) Then whole-cell lysates were analyzed by Western blotting.
as §3
as §2, with “Western blot analysis was performed essentially as described previously (Hu et al, 2015, PMID: 26358219).” left out

VHL-ElonginBC complex = biological target: T2, VHL-ElonginBC complex (Homo sapiens, UniProt P40337); assay: Fluorescence-polarization (FP) competitive binding assay for VHL; details: VHL ligands; VHL-ElonginBC complex and fluorescent probe both 5 nM; read-out: FP Binding affinity IC50
T2 construct: His-TEV (His-tag with TEV protease site) (cleaved yes); made in house; host or cells: E. coli BL21(DE3)
Protocol: Cloning and Purification of VHL-ElonginBC complex. The DNA sequence of VHL (coding for residues 54-213) was constructed by PCR and inserted into a His-TEV expression vector^58 using ligation-independent cloning. The DNA sequences of Elongin B (encoding residues 1-118) and Elongin C (encoding residues 1-96) were constmcted by PCR and inserted into pCDFDuet 1 using Gibson assembly.^59 BL21(DE3) cells were transformed simultaneously with both plasmids and grown in Terrific Broth at 37° C. until an OD600 of 1.2. The cells were induced overnight with 0.4 mM IPTG at 24° C. Pelleted cells were freeze-thawed then resuspended in 20 mM Tris HCl pH7.0, 200 mM NaCl and 0.1% β-mercaptoethanol (bME) containing protease inhibitors. The cell suspension was lysed by sonication and debris removed via centrifugation. The supernatant was incubated at 4° C. for 1 hr with Ni-NTA (Qiagen) pre-washed in 20 mM Tris-HCl pH 7.0, 200 mM NaCl and 10 mM Imidazole. The protein complex was eluted in 20 mM Tris-HCl pH 7.0, 200 mM NaCl and 300 mM Imidazole, dialyzed into 20 mM Tris-HCl pH 7.0, 150 mM NaCl, and 0.01% bME and incubated with TEV protease overnight at 4° C. The protein sample was reapplied to the Ni-NTA column to remove the His-tag. The flow through containing the VHL complex was diluted to 75 mM NaCl and applied to a HiTrap Q column (GE Healthcare). The sample was eluted with a salt gradient (0.075-1 M NaCl), concentrated and further purified on a Superdex S75 column (GE Healthcare) pre-equilibrated with 20 mM Bis-Tris 7.0, 150 mM NaCl and 1 mM DTT. Samples were aliquoted and stored at −80° C.
Binding Affinities of VHL ligands to VHL. A fluorescence-polarization (FP) competitive assay was established using VHL-ElonginBC complex and a fluorescently tagged probe (SI). The IC50 and Ki values of VHL ligands were determined in competitive binding experiments. Mixtures of 5 μL of compounds in DMSO and 95 μL of preincubated protein/tracer complex solution were added into assay plates which were incubated at rt for 60 min with gentle shaking. Final concentrations of VHL-ElonginBC complex and fluorescent probe were both 5 nM. Negative controls containing protein/probe complex only (equivalent to 0% inhibition) and positive controls containing only free probes (equivalent to 100% inhibition) were included in each assay plate. FP values in millipolarization units (mP) were measured using the Infinite M-1000 plate reader (Tecan U.S., Research Triangle Park, N.C.) in Microfluor 1 96-well, black, round-bottom plates (Thermo Scientific, Waltham, Mass.) at an excitation wavelength of 485 nm and an emission wavelength of 530 nm. IC50 values were determined by nonlinear regression fitting of the competition curves. Ki values of competitive inhibitors were obtained directly by nonlinear regression fitting, based upon the KD values of the probe and concentrations of the protein and probe in the competitive assays. All the FP competitive experiments were performed in duplicate in three independent experiments.

| Compound | maximum inhibition (Imax) (MCF-7 cells) [%] | IC50 (VHL-ElonginBC complex) [µM] | also measured |
| --- | --- | --- | --- |
| C[C@]12CC[C@@H]3c4ccc(O)cc4C[C@@H](CCCCCCCCC[S+]([O-])CCCC(F)(F)C(F)(F)F)[C@H]3[C@@H]1CC[C@@H]2O (stereo partly shown) [fulvestrant] | 43.8 |  | oral bioavailability [1]: not orally bioavailable; solubility [2]: poor solubility; reduction of ER protein level at 1 h (ERα [3]; 1 h treatment): only a modest effect; maximum ER degradation in time course (ERα [3]; after a 24 h treatment): approximately 90% |
| CC(C)C[C@H](NC(=O)[C@H](CCc1ccccc1)NC(=O)CN1CCOCC1)C(=O)N[C@@H](Cc1ccccc1)C(=O)N[C@@H](CC(C)C)C(=O)[C@@]1(C)CO1 [carfilzomib, reference compound] |  |  | effect alone on ER protein levels (ERα [4]): no effect |
| CCNCCc1ccc(CN(CC)c2cc(OC)ccc2[C@@H]2CCc3cc(O)ccc3C2)cc1 [RAD1901] | 25.7 |  |  |
| O=C(c1ccc(OCCN2CCCCC2)cc1)c1c(-c2ccc(O)cc2)sc2cc(O)ccc12 [raloxifene] | 34.0 |  |  |
| CC(=O)N[C@H](C(=O)N1C[C@H](O)C[C@H]1C(=O)N[C@@H](C)c1ccc(C(C)(C)C)cc1)C(C)(C)C [48a, (2S,4R)-1-((S)-2-acetamido-3,3-dimethylbutanoyl)-N—((S)-1-(4-(tert-butyl)phenyl)ethyl)-4-hydroxypyrrolidine-2-carboxamide] |  | 58.9 ± 5.26 |  |
| CC(=O)N[C@H](C(=O)N1C[C@H](O)C[C@H]1C(=O)N[C@@H](C)c1ccc(C(C)C)cc1)C(C)(C)C [47a, (2S,4R)-1-((S)-2-acetamido-3,3-dimethylbutanoyl)-4-hydroxy-N—((S)-1-(4-isopropylphenyl)ethyl)pyrrolidine-2-carboxamide] |  | 41 ± 6.67 |  |

Source: US20220079931A1, “ESTROGEN RECEPTOR PROTEIN DEGRADERS” (THE REGENTS OF THE UNIVERSITY OF MICHIGAN, priority 2019, published 2022)
